Data taken from the SangsterLogP compilation.

Assay: method code SF, from Hansch, C. & Leo, A. (1987). Log P database [Dataset]. Pomona College Medicinal Chemistry Project.
Conditions: not given
O=c1cn[nH]c2ccccc12 gave a logP of 0.82.
Work on COc1ccc(OC(=O)CNC(=O)c2ccccc2)cc1 yielded a logP of 2.28.
O=[N+]([O-])c1ccc(C=Cc2nc[nH]n2)o1 gave a logP of 1.1.
CNC(N)=NC#N showed a logP of -0.77.
Compound CC1=Nc2cc(C)ccc2S(=O)(=O)N1 has a logP of 0.74.
COc1ccc(-c2nc3cnccc3[nH]2)c(OC)c1 gave a logP of 2.56.
In the case of CCN(CC)C(C)CN1c2ccccc2Sc2ccccc21 (configuration not stated), the logP was 4.77.
Work on CCC(=Cc1ccccc1)[N+](=O)[O-] yielded a logP of 2.86.
CC(=O)Nc1cccs1 gave a logP of 1.1.
Compound CC(=O)NCc1ccccc1 has a logP of 0.95.
Compound O=[N+]([O-])Cc1ccccc1 has a logP of 1.75.
For COC1OC(=O)c2ccccc21 (configuration not stated), the logP was 1.
Compound CN(C)C(=O)c1cccs1 has a logP of 0.75.
Compound CC1=Nc2c([N+](=O)[O-])cc(Cl)cc2S(=O)(=O)N1 has a logP of 0.85.
With CCCCC(=O)Nc1ccccc1 the logP was 2.61.
For C[C@@H]1C[C@H]2[C@@H]3C[C@H](F)C4=CC(=O)C(Cl)=C[C@]4(C)[C@@]3(F)[C@@H](O)C[C@]2(C)[C@@]1(O)C(=O)CO, the logP was 2.58.
O=Nc1ccc(O)cc1 showed a logP of 1.29.
Work on O=[N+]([O-])CCO yielded a logP of -0.42.
Compound CC1(C)OCCO1 has a logP of 0.46.
Work on CC(=O)Nc1ccccc1NC(C)=O yielded a logP of -0.03.
In the case of CCOC(=O)c1ccncc1, the logP was 1.43.
In the case of Nc1cccc([N+](=O)[O-])c1N, the logP was 1.27.
Work on CNC(=O)O/N=C(\C)C(C)(C)[N+](=O)[O-] yielded a logP of 0.66.
In the case of Cc1n[nH]cc1[N+](=O)[O-], the logP was 0.19.
With O[C@@H]1CCCC[C@H]1O the logP was 0.08.
CNP(=O)(OC)Oc1ccc(Cl)cc1 (configuration not stated) showed a logP of 1.85.
Compound Cn1ccc(=O)c2ccccc21 has a logP of 0.44.
In the case of CCOC(=O)C(=Cc1ccccc1OC)C(=O)OCC, the logP was 3.29.
CCOC(=O)C(=O)OCC showed a logP of 0.56.
For CCCCC1C(=O)NC(=O)NC1=O, the logP was 0.77.
With O=c1[nH]nc(Sc2ccccc2)[nH]1 the logP was 1.46.
Work on NC(=O)c1ccccc1Br yielded a logP of 0.73.
Compound O=NN1CCOCC1 has a logP of -0.3.
CCCCCCCCOC(=O)c1ccccc1C(=O)OCCCCCCCC showed a logP of 5.22.
CN(C)C(=O)Oc1ccccc1Br showed a logP of 2.17.
In the case of CCCOc1cccc(C=C(C(=O)OCC)C(=O)OCC)c1, the logP was 4.
Compound CN(C)C(=O)/C=C/c1ccccc1 has a logP of 1.73.
CCOP(=S)(OCC)SCSCC showed a logP of 3.24.
Nc1ncccn1 gave a logP of -0.22.
OCC(F)(F)C(F)(F)F gave a logP of 1.23.
COc1cc(C=NO)ccc1O gave a logP of 2.16.
In the case of C=CCO, the logP was 0.17.
Work on N#CN=[N+]([O-])c1cccc(Br)c1 yielded a logP of 2.56.
Work on O=C1C(NCC(O)CO)=C(N2CC2)C(=O)C(NCC(O)CO)=C1N1CC1 (configuration not stated) yielded a logP of -1.97.

Same assay, conditions: pH 0.5
CC(O)COc1cccc2oc(C(=O)O)cc(=O)c12 (configuration not stated) gave a logD of 1.32.

Same assay, conditions: pH 1.0
With O=C(O)C(CO)c1ccccc1 (configuration not stated) the logD was 0.77.

Same assay, conditions: pH 1.4
Work on Oc1c(Br)cc(Br)c(O)c1Br yielded a logD of 4.37.

Same assay, conditions: pH 2.0
In the case of CCC1(CC2COc3ccccc3O2)C(=O)NC(=O)NC1=O (configuration not stated), the logD was 1.85.
Work on CN(C)/N=N/c1ccccc1I yielded a logD of 3.5.

Same assay, conditions: pH 2.2
With c1ccc(Cc2nn[nH]n2)cc1 the logD was 1.36.

Same assay, conditions: pH 5.0
Compound CC(C)c1cccc(O)c(=O)c1 has a logD of 1.82.

Same assay, conditions: pH 6.0
Compound Cc1cc(N(C)S(=O)(=O)c2ccc(N)cc2)no1 has a logD of 1.75.

Same assay, conditions: pH 7.0
Work on CCCCOC(=O)c1cccnc1 yielded a logD of 2.27.

Same assay, conditions: pH 7.4
In the case of CO[C@H]1O[C@H](CNC(=O)N(C)N=O)[C@@H](O)[C@H](O)[C@H]1O, the logD was -1.57.
In the case of COc1ccccc1/N=N/N(C)C, the logD was 2.34.
Work on CC12CCC(=O)C=C1CCC1C2CCC2(C)C1CCC21CCC(=O)O1 (configuration not stated) yielded a logD of 2.75.
For CC(CN1CC(=O)NC(=O)C1)N1CC(=O)NC(=O)C1 (configuration not stated), the logD was -1.74.
For Cc1c(N(C)C)c(=O)n(-c2ccccc2)c(=O)n1CCO, the logD was 0.85.

Same assay, conditions: pH 11.0
Compound c1cncc([C@@H]2CCCN2)c1 has a logD of 0.17.
With CCN(CC)Cc1cccnc1 the logD was 1.01.

Same assay, conditions: pH 12.3
With CCCC1CNC(C(=O)NC(C(C)Br)C2OC(SC)C(O)C(O)C2O)C1 (configuration not stated) the logD was 1.77.

Same assay, conditions: pH 13.0
In the case of NNc1ccc(Br)cc1, the logD was 1.39.
